A word on the IC50: it is the concentration needed to halve the response being measured.

Data on four compounds can be found in ChEMBL document CHEMBL1125749, “trans-3-n-propyl-L-proline is a highly favorable, conformationally restricted replacement for methionine in the C-terminal tetrapeptide of cholecystokinin. Stereoselective synthesis of 3-allyl- and 3-n-propyl-L-proline derivatives from 4-hydroxy-L-proline” (J Med Chem, 1991).

SMILES strings stand for the structures. Square brackets hold non-standard residues; d marks the D form. Peptide text beside a SMILES is read from it. * marks the point of attachment. Nle = CCCC[C@H](N)C(=O)O; Boc = CC(C)(C)OC(=O)*

The target of this test is T1, Cholecystokinin receptor type A (Cavia porcellus, UniProt Q63931).
T1 sequence (Q63931 whole entry): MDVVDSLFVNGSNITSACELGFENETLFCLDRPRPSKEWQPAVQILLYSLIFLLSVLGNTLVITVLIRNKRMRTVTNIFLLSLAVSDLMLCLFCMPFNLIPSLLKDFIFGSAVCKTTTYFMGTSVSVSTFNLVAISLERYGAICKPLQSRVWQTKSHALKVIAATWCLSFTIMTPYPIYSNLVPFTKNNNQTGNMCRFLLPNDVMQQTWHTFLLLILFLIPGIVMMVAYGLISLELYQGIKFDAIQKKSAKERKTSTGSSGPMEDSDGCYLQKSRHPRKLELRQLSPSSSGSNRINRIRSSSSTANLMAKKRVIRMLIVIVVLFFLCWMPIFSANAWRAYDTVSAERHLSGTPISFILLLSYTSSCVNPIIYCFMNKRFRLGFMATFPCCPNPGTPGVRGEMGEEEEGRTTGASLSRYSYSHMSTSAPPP
The test can be described thus: Compound was tested for its inhibitory activity in pancreatic cholecystokinin type A receptor in guinea pig.
Take `CCC[C@@H]1CCN(C(=O)[C@H](Cc2c[nH]c3ccccc23)NC(=O)OC(C)(C)C)[C@@H]1C(=O)N[C@@H](CC(=O)O)C(=O)N[C@@H](Cc1ccccc1)C(N)=O`: half-maximal inhibition (IC50) required 2.7 µM.

For the compound `C[C@H](NC(=O)[C@H](Cc1c[nH]c2ccccc12)NC(=O)OC(C)(C)C)C(=O)N[C@@H](CC(=O)O)C(=O)N[C@@H](Cc1ccccc1)C(N)=O` (Boc-WADF-NH2), the half-inhibitory concentration (IC50) is 10.3 µM.

`CC(C)(C)OC(=O)N[C@@H](Cc1c[nH]c2ccccc12)C(=O)N1CCC[C@H]1C(=O)N[C@@H](CC(=O)O)C(=O)N[C@@H](Cc1ccccc1)C(N)=O` (Boc-WPDF-NH2) gave a 50% inhibitory concentration (IC50) of 2.1 µM. Against the preceding compound, the IC50 is about 4.9-fold lower.

In turn, `CCCC[C@H](NC(=O)[C@H](Cc1c[nH]c2ccccc12)NC(=O)OC(C)(C)C)C(=O)N[C@@H](CC(=O)O)C(=O)N[C@@H](Cc1ccccc1)C(N)=O` (Boc-W[Nle]DF-NH2) came in with an IC50 of 4 µM.
